These results are taken from publication PMC5218480 (PLoS ONE, 2017).

The test system of the assay is MV-4-11 cells. Kind of assay: Gene expression microarray analysis (Affymetrix PrimeView) and GSEA. Type of assay: cell-based, human. Set-up: RFU PODN (11730768_x_at) / Fold change /veh PODN (11730768_x_at) / RFU LINC00158 (11744669_a_at) / Fold change /veh LINC00158 (11744669_a_at) / RFU DUSP10 (11751237_a_at) / Fold change /veh DUSP10 (11751237_a_at) / RFU ID3 (11757404_x_at) / Fold change /veh ID3 (11757404_x_at) / RFU PLEKHG5 (11737974_s_at) / Fold change /veh PLEKHG5 (11737974_s_at) / RFU LRRC4B (11730491_at) / Fold change /veh LRRC4B (11730491_at) / RFU GIMAP4 (11747438_a_at) / Fold change /veh GIMAP4 (11747438_a_at) / RFU KRT8 (11758183_x_at) / Fold change /veh KRT8 (11758183_x_at) / RFU CNN1 (11734310_a_at) / Fold change /veh CNN1 (11734310_a_at) / RFU VPS37D (11726825_at) / Fold change /veh VPS37D (11726825_at) / RFU C10orf10 (11716522_x_at) / Fold change /veh C10orf10 (11716522_x_at) / RFU KIR2DL2 /// KIR2DL4 /// KIR2DL5A /// KIR2DL5B /// KIR2DS1 /// KIR2DS2 /// KIR2DS3 /// KIR2DS4 /// KIR3DL3 /// KIR3DL3 /// KIR3DS1 (11738374_at) / Fold change /veh KIR2DL2 /// KIR2DL4 /// KIR2DL5A /// KIR2DL5B /// KIR2DS1 /// KIR2DS2 /// KIR2DS3 /// KIR2DS4 /// KIR3DL3 /// KIR3DL3 /// KIR3DS1 (11738374_at) / RFU C1QL1 (11718748_at) / Fold change /veh C1QL1 (11718748_at) / RFU TMPRSS4 (11747572_a_at) / Fold change /veh TMPRSS4 (11747572_a_at) / RFU HAMP (11756126_x_at) / Fold change /veh HAMP (11756126_x_at) / RFU RNFT2 (11725882_a_at) / Fold change /veh RNFT2 (11725882_a_at) / RFU NR4A2 (11747474_a_at) / Fold change /veh NR4A2 (11747474_a_at) / RFU ABCC12 (11746883_a_at) / Fold change /veh ABCC12 (11746883_a_at) / RFU TMEM136 (11760407_x_at) / Fold change /veh TMEM136 (11760407_x_at) / RFU CLDN22 /// WWC2 (11732394_at) / Fold change /veh CLDN22 /// WWC2 (11732394_at) / RFU HLA-DPB1 (11760878_x_at) / Fold change /veh HLA-DPB1 (11760878_x_at) / RFU SPINT1 (11716480_a_at) / Fold change /veh SPINT1 (11716480_a_at) / RFU GAP43 (11754022_s_at) / Fold change /veh GAP43 (11754022_s_at) / RFU A4GNT (11735810_at) / Fold change /veh A4GNT (11735810_at) / RFU PRB3 (11715151_x_at) / Fold change /veh PRB3 (11715151_x_at) / RFU TUBB4B (11761932_at) / Fold change /veh TUBB4B (11761932_at) / RFU CAPN14 (11732068_a_at) / Fold change /veh CAPN14 (11732068_a_at) / RFU TMCC2 (11721928_a_at) / Fold change /veh TMCC2 (11721928_a_at) / RFU IRGQ (11745062_a_at) / Fold change /veh IRGQ (11745062_a_at) / RFU FAM174B (11720279_a_at) / Fold change /veh FAM174B (11720279_a_at) / RFU TMPRSS4 (11748680_a_at) / Fold change /veh TMPRSS4 (11748680_a_at) / RFU FAM212B (11763350_a_at) / Fold change /veh FAM212B (11763350_a_at) / RFU PLEKHG5 (11743358_a_at) / Fold change /veh PLEKHG5 (11743358_a_at) / RFU ZSCAN30 (11745921_a_at) / Fold change /veh ZSCAN30 (11745921_a_at) / RFU CMKLR1 (11741424_a_at) / Fold change /veh CMKLR1 (11741424_a_at) / RFU LOC101060620 /// MAPK8IP1 (11723275_at) / Fold change /veh LOC101060620 /// MAPK8IP1 (11723275_at) / RFU SPTSSB (11747773_x_at) / Fold change /veh SPTSSB (11747773_x_at) / RFU PRSS12 (11739890_at) / Fold change /veh PRSS12 (11739890_at) / RFU BIN1 (11741810_x_at) / Fold change /veh BIN1 (11741810_x_at) / RFU WNT11 (11732464_a_at) / Fold change /veh WNT11 (11732464_a_at) / RFU C10orf10 (11716521_a_at) / Fold change /veh C10orf10 (11716521_a_at) / RFU C5orf56 (11738089_at) / Fold change /veh C5orf56 (11738089_at) / RFU CYB561 (11721691_x_at) / Fold change /veh CYB561 (11721691_x_at) / RFU ANKRD19P (11752326_a_at) / Fold change /veh ANKRD19P (11752326_a_at) / RFU OR2T12 /// OR2T33 /// OR2T8 (11738714_s_at) / Fold change /veh OR2T12 /// OR2T33 /// OR2T8 (11738714_s_at) / RFU VCAN (11748164_a_at) / Fold change /veh VCAN (11748164_a_at) / RFU JSRP1 (11732532_at) / Fold change /veh JSRP1 (11732532_at) / RFU KRTAP10-11 (11738290_x_at) / Fold change /veh KRTAP10-11 (11738290_x_at) / RFU MYO3A (11730013_a_at) / Fold change /veh MYO3A (11730013_a_at) / RFU EBF3 (11725865_a_at) / Fold change /veh EBF3 (11725865_a_at) / RFU CAMK2N1 (11719241_x_at) / Fold change /veh CAMK2N1 (11719241_x_at) / RFU C5orf56 (11738088_a_at) / Fold change /veh C5orf56 (11738088_a_at) / RFU OLFML3 (11715873_a_at) / Fold change /veh OLFML3 (11715873_a_at) / RFU LOC100653217 /// NTM (11731650_a_at) / Fold change /veh LOC100653217 /// NTM (11731650_a_at) / RFU MAPK11 (11762145_a_at) / Fold change /veh MAPK11 (11762145_a_at) / RFU FIZ1 (11724087_x_at) / Fold change /veh FIZ1 (11724087_x_at) / RFU OASL (11726364_x_at) / Fold change /veh OASL (11726364_x_at) / RFU SOX15 (11748057_x_at) / Fold change /veh SOX15 (11748057_x_at) / RFU CD79A (11719716_a_at) / Fold change /veh CD79A (11719716_a_at) / RFU HIST1H1D (11736915_at) / Fold change /veh HIST1H1D (11736915_at) / RFU CASKIN2 (11723855_a_at) / Fold change /veh CASKIN2 (11723855_a_at) / RFU LOC730098 (11760151_x_at) / Fold change /veh LOC730098 (11760151_x_at) / RFU OR4N2 (11742367_at) / Fold change /veh OR4N2 (11742367_at) / RFU PRRT2 (11749266_a_at) / Fold change /veh PRRT2 (11749266_a_at) / RFU SNX32 (11753110_a_at) / Fold change /veh SNX32 (11753110_a_at) / RFU CDHR5 (11726645_a_at) / Fold change /veh CDHR5 (11726645_a_at) / RFU RCAN1 (11760418_a_at) / Fold change /veh RCAN1 (11760418_a_at) / RFU FAM167A (11723789_a_at) / Fold change /veh FAM167A (11723789_a_at) / RFU FAM26E (11764081_at) / Fold change /veh FAM26E (11764081_at) / RFU ISYNA1 (11749810_s_at) / Fold change /veh ISYNA1 (11749810_s_at) / RFU ACY1 (11761880_at) / Fold change /veh ACY1 (11761880_at) / RFU 11764098_at / Fold change /veh 11764098_at / RFU SAMD14 (11745864_x_at) / Fold change /veh SAMD14 (11745864_x_at) / RFU NPB (11741838_a_at) / Fold change /veh NPB (11741838_a_at) / RFU TMPRSS6 (11731388_a_at) / Fold change /veh TMPRSS6 (11731388_a_at) / RFU KRTAP10-2 (11738614_at) / Fold change /veh KRTAP10-2 (11738614_at) / RFU ARHGAP8 /// PRR5-ARHGAP8 (11727945_x_at) / Fold change /veh ARHGAP8 /// PRR5-ARHGAP8 (11727945_x_at) / RFU KRTAP5-7 /// NADSYN1 (11734609_at) / Fold change /veh KRTAP5-7 /// NADSYN1 (11734609_at) / RFU RASL12 (11751679_a_at) / Fold change /veh RASL12 (11751679_a_at) / RFU CDKN2B (11736163_a_at) / Fold change /veh CDKN2B (11736163_a_at) / RFU PRF1 (11729649_at) / Fold change /veh PRF1 (11729649_at) / RFU, ZNF638 /// ZNF638-IT1 / Fold change vs veh, ZNF638 /// ZNF638-IT1 / RFU, PANK3 / Fold change vs veh, PANK3 / RFU, SH3YL1 / Fold change vs veh, SH3YL1 / RFU, ZEB2 / Fold change vs veh, ZEB2 / RFU, NRIP1 / Fold change vs veh, NRIP1 / RFU, PTTG1IP / Fold change vs veh, PTTG1IP / RFU, CAPN2 / Fold change vs veh, CAPN2 / RFU, MED14 / Fold change vs veh, MED14 / RFU, SNORA58 / Fold change vs veh, SNORA58 / RFU, C1orf63 / Fold change vs veh, C1orf63 / RFU, LRRFIP1 / Fold change vs veh, LRRFIP1 / RFU, NDUFAF7 / Fold change vs veh, NDUFAF7 / RFU, SLC12A2 / Fold change vs veh, SLC12A2 / RFU, IBTK / Fold change vs veh, IBTK / RFU, ESF1 / Fold change vs veh, ESF1 / Fold change vs veh, TMEM50B / RFU, TAOK1 / Fold change vs veh, TAOK1 / RFU, ACBD3 / Fold change vs veh, ACBD3 / RFU, TMA16 / Fold change vs veh, TMA16 / RFU, RWDD3 / Fold change vs veh, RWDD3 / RFU, BCAT1 / Fold change vs veh, BCAT1 / RFU, EDEM3 / Fold change vs veh, EDEM3 / RFU, TMEM33 / Fold change vs veh, TMEM33 / RFU, WDR75 / Fold change vs veh, WDR75 / RFU, AHCTF1 / Fold change vs veh, AHCTF1 / RFU, TFRC / Fold change vs veh, TFRC / RFU, ZDHHC17 / Fold change vs veh, ZDHHC17 / RFU, NOM1 / Fold change vs veh, NOM1 / RFU, ARL8B / Fold change vs veh, ARL8B / RFU, ZBTB11 / Fold change vs veh, ZBTB11 / RFU, TAMM41 / Fold change vs veh, TAMM41 / RFU, KIAA1704 /// LOC100996395 / Fold change vs veh, KIAA1704 /// LOC100996395 / RFU, ING1 / Fold change vs veh, ING1 / RFU, TRMT61B / Fold change vs veh, TRMT61B / RFU, FUBP3 / Fold change vs veh, FUBP3 / RFU, TP53 / Fold change vs veh, TP53 / RFU, TNKS2 / Fold change vs veh, TNKS2 / RFU, ZFP14 / Fold change vs veh, ZFP14 / RFU, ACTR2 / Fold change vs veh, ACTR2 / RFU, PPP3R1 / Fold change vs veh, PPP3R1 / RFU, PIK3R1 / Fold change vs veh, PIK3R1 / RFU, HNRNPA1 / Fold change vs veh, HNRNPA1 / RFU, RNF170 / Fold change vs veh, RNF170 / RFU, ZNF28 / Fold change vs veh, ZNF28 / RFU, RNGTT / Fold change vs veh, RNGTT / RFU, OGT / Fold change vs veh, OGT / RFU, BRD1 / Fold change vs veh, BRD1 / RFU, MARS / Fold change vs veh, MARS / RFU, ZNF655 / Fold change vs veh, ZNF655 / RFU, FAHD1 / Fold change vs veh, FAHD1 / RFU, BDP1 / Fold change vs veh, BDP1 / RFU, LRRCC1 / Fold change vs veh, LRRCC1 / RFU, ARID1A / Fold change vs veh, ARID1A / RFU, ZNF146 / Fold change vs veh, ZNF146 / RFU, ZNF330 / Fold change vs veh, ZNF330 / RFU, GPN3 / Fold change vs veh, GPN3 / RFU, C9orf123 / Fold change vs veh, C9orf123 / RFU, N4BP2L2 / Fold change vs veh, N4BP2L2 / RFU, ARFIP1 / Fold change vs veh, ARFIP1 / RFU, FAM179B / Fold change vs veh, FAM179B / RFU, BCL10 / Fold change vs veh, BCL10 / RFU, UHRF1BP1L / Fold change vs veh, UHRF1BP1L / RFU, BET1 / Fold change vs veh, BET1 / RFU, CNOT2 / Fold change vs veh, CNOT2 / RFU, ZNF268 / Fold change vs veh, ZNF268 / Fold change vs veh, ZNF507 / RFU, DGCR2 / Fold change vs veh, DGCR2 / RFU, WDSUB1 / Fold change vs veh, WDSUB1 / Fold change vs veh, HSP90B1 /// MIR3652 / RFU, ADSS / Fold change vs veh, ADSS / RFU, GK / Fold change vs veh, GK / RFU, ZNF148 / Fold change vs veh, ZNF148 / RFU, TAF9 / Fold change vs veh, TAF9 / RFU, SLC1A5 / Fold change vs veh, SLC1A5 / RFU, SLMO2 / Fold change vs veh, SLMO2 / RFU, ABCC4 / Fold change vs veh, ABCC4 / RFU, LOC101060439 /// RAP1B / Fold change vs veh, LOC101060439 /// RAP1B / RFU, RFX7 / Fold change vs veh, RFX7 / RFU, GTPBP10 / Fold change vs veh, GTPBP10 / RFU, CNEP1R1 / Fold change vs veh, CNEP1R1 / RFU, BIVM-ERCC5 /// ERCC5 / Fold change vs veh, BIVM-ERCC5 /// ERCC5 / RFU, ILF3 / Fold change vs veh, ILF3 / RFU 11762660_at / Fold change /veh 11762660_at / RFU VCAN (11757783_s_at) / Fold change /veh VCAN (11757783_s_at) / RFU DDX43 (11728927_at) / Fold change /veh DDX43 (11728927_at) / RFU KRT8 (11758188_x_at) / Fold change /veh KRT8 (11758188_x_at) / RFU NKD1 (11759106_at) / Fold change /veh NKD1 (11759106_at) / RFU SRD5A1 (11742802_a_at) / Fold change /veh SRD5A1 (11742802_a_at) / RFU TPSAB1 /// TPSB2 (11721975_s_at) / Fold change /veh TPSAB1 /// TPSB2 (11721975_s_at) / RFU GSTM3 (11746129_a_at) / Fold change /veh GSTM3 (11746129_a_at) / RFU IL23R (11737362_x_at) / Fold change /veh IL23R (11737362_x_at) / RFU TMEM51 (11727254_a_at) / Fold change /veh TMEM51 (11727254_a_at) / RFU PIWIL2 (11732686_x_at) / Fold change /veh PIWIL2 (11732686_x_at) / RFU ORM1 (11744905_x_at) / Fold change /veh ORM1 (11744905_x_at) / RFU CCDC152 (11743942_at) / Fold change /veh CCDC152 (11743942_at) / RFU ECM1 (11717891_a_at) / Fold change /veh ECM1 (11717891_a_at) / RFU IL23R (11748794_a_at) / Fold change /veh IL23R (11748794_a_at) / RFU TNFAIP8L3 (11732012_x_at) / Fold change /veh TNFAIP8L3 (11732012_x_at) / RFU MBOAT4 (11741988_at) / Fold change /veh MBOAT4 (11741988_at) / RFU 11764193_at / Fold change /veh 11764193_at / RFU TMEM53 (11763286_at) / Fold change /veh TMEM53 (11763286_at) / RFU MAGEB2 (11727129_at) / Fold change /veh MAGEB2 (11727129_at) / RFU TMEM200A (11744735_a_at) / Fold change /veh TMEM200A (11744735_a_at) / RFU CCDC152 (11751479_a_at) / Fold change /veh CCDC152 (11751479_a_at) / RFU FAM211A (11726209_a_at) / Fold change /veh FAM211A (11726209_a_at) / RFU RGS16 (11746705_a_at) / Fold change /veh RGS16 (11746705_a_at) / RFU VCAN (11755009_s_at) / Fold change /veh VCAN (11755009_s_at) / RFU RHOB (11743442_s_at) / Fold change /veh RHOB (11743442_s_at) / RFU RGS16 (11720943_a_at) / Fold change /veh RGS16 (11720943_a_at) / RFU RGS16 (11720944_at) / Fold change /veh RGS16 (11720944_at) / RFU, VPS4B / Fold change vs veh, VPS4B / RFU, CREB1 / Fold change vs veh, CREB1 / RFU, DNAJC13 / Fold change vs veh, DNAJC13 / RFU, GNAQ / Fold change vs veh, GNAQ / RFU, CDK5R1 / Fold change vs veh, CDK5R1 / RFU, ZRANB3 / Fold change vs veh, ZRANB3 / RFU, CUL4A / Fold change vs veh, CUL4A / RFU, CCNY / Fold change vs veh, CCNY / RFU, UFL1 / Fold change vs veh, UFL1 / RFU, COG3 / Fold change vs veh, COG3 / RFU, DIAPH2 / Fold change vs veh, DIAPH2 / RFU, SKA2 / Fold change vs veh, SKA2 / RFU, AFF3 / Fold change vs veh, AFF3 / RFU, LMF1 / Fold change vs veh, LMF1 / RFU, IPO11 / Fold change vs veh, IPO11 / RFU, DFFB / Fold change vs veh, DFFB / RFU, FOXP1 / Fold change vs veh, FOXP1 / RFU, CARD8 / Fold change vs veh, CARD8 / RFU, STRN3 / Fold change vs veh, STRN3 / RFU, ADK / Fold change vs veh, ADK / RFU, RASSF2 / Fold change vs veh, RASSF2 / RFU, WIPF1 / Fold change vs veh, WIPF1 / RFU, LARP1B / Fold change vs veh, LARP1B / RFU, RASA1 / Fold change vs veh, RASA1 / RFU, RB1 / Fold change vs veh, RB1 / RFU, PPFIA1 / Fold change vs veh, PPFIA1 / RFU, MAT2A / Fold change vs veh, MAT2A / RFU, CCT5 / Fold change vs veh, CCT5 / RFU, WDR92 / Fold change vs veh, WDR92 / RFU, CUX1 / Fold change vs veh, CUX1 / RFU, TTC7A / Fold change vs veh, TTC7A / RFU, TMEM135 / Fold change vs veh, TMEM135 / RFU, DEPTOR / Fold change vs veh, DEPTOR / RFU, CPM / Fold change vs veh, CPM / RFU, DNAJB6 / Fold change vs veh, DNAJB6 / RFU, CACNA2D3 / Fold change vs veh, CACNA2D3 / RFU, DTX4 / Fold change vs veh, DTX4 / RFU, TFCP2 / Fold change vs veh, TFCP2 / RFU, GMCL1 /// GMCL1P1 / Fold change vs veh, GMCL1 /// GMCL1P1 / RFU, AEBP2 / Fold change vs veh, AEBP2 / RFU, SNHG1 /// SNORD22 /// SNORD25 /// SNORD26 /// SNORD27 /// SNORD28 /// SNORD29 /// SNORD31 / Fold change vs veh, SNHG1 /// SNORD22 /// SNORD25 /// SNORD26 /// SNORD27 /// SNORD28 /// SNORD29 /// SNORD31 / Fold change (Aza/veh), C12orf56 (ProbeSet 11735607_a_at) / Fold change (ACY-1035/veh), C12orf56 (ProbeSet 11735607_a_at) / Fold change (Aza/veh), FGFR1OP (ProbeSet 11751329_s_at) / Fold change (ACY-1035/veh), FGFR1OP (ProbeSet 11751329_s_at) / Fold change (Aza/veh), VPS36 (ProbeSet 11739960_a_at) / Fold change (ACY-1035/veh), VPS36 (ProbeSet 11739960_a_at) / RFU SYPL1 (11715823_x_at) / Fold change /veh SYPL1 (11715823_x_at) / RFU IGFBP7 (11715501_s_at) / Fold change /veh IGFBP7 (11715501_s_at) / RFU REEP3 (11722064_at) / Fold change /veh REEP3 (11722064_at) / RFU IGLL1 (11728026_x_at) / Fold change /veh IGLL1 (11728026_x_at): dose or concentration left out as unconfirmed. The conditions noted are these: MV-4-11 cells, 48 hours.

Take `Nc1ccc(-c2cccs2)cc1NC(=O)c1ccc2c(c1)cc(C1CC1)n2CCN1CCOCC1` [ACY-1035]: the “RFU 11764193_at” value was determined as 28.66 RFU.
